Measurements from patent publication US7507749B2, “Antitumor agents” (priority 2001, dated 2009).
Read-outs that look alike come from different tables or passages of the source.

What was measured:
[1] = test system: mammary adenocarcinoma-16/C; experiment: Test F: R-enantiomers of 22b and 22c against early staged mammary adenocarcinoma-16/C; format: in vivo, C3H female mice
Method: C3H female mice were obtained from N.C.I. (D.O.B. was […]; D.O.A. was Jan. 27, 2001). The mice weighed an average of 19.2 gm. Mice were implanted SC with mammary adenocarcinoma-16/C passage-170, a fast growing, highly invasive, highly metastatic tumor (D.O.T. was Mar. 8, 2001; Td was 1.2 days).
The R-enantiomers of both Compound 22c and Compound 22b were each suspended in 3% ethanol, 1% POE-80, 0.5% sodium bicarbonate (by volume) to effect solution, P.B.S. was then added and the pH adjusted to 7 with HCl. Adriamycin (ADRIA; lot number 20338c) was suspended in dH2O to effect solution and the pH was adjusted to 6.0. Mice were administered 0.2 ml per IV injection.

[2] = test system: pancreatic ductal adenocarcinoma-03; format: in vivo
Method: BDF1 female mice were obtained from N.C.I., CRL-Ral (D.O.B. was Feb. 26, 2001; D.O.A. was Mar. 10, 2001). The mice weighed an average of 22.5 gm. Mice were implanted SC with pancreatic ductal adenocarcinoma-03 passage 143. (D.O.T. was May 29, 2001; Td was 2.3 days).
The R-enantiomer of compound 22c was suspended in 3% ethanol, 1% POE-80, 0.25% sodium bicarbonate (by volume) to effect solution. dH2O was then added, and the pH adjusted to 7 with HCl. […] The R-enantiomer of compound 22b was suspended in 3% ethanol, 1% POE-80, 0.5% sodium-bicarbonate (by volume) to effect solution. Then, dH2O was added, and the pH adjusted to 7.5 with HCl. […] Adriamycin (source ADRIA; lot 2033BC) was suspended in dH2O to effect solution, and the pH was 6.0.
Treatment began six days following implant, at which time the tumors were palpable size (126 mg median). The duration of treatment was prolonged (18 days) in order to obtain a clear separation in efficacy between the compounds.

colon carcinoma 26 = test system: colon carcinoma 26
Method: In this trial the R-enantiomers of XK-469, compound 22c, and compound 22b were compared against advanced staged colon carcinoma 26 in female Balb/c mice. […] Cage #2 was 22b at 400 mg/kg and Cage #4 was 22c at 400 mg/kg.
The XK469-R, 22b, and 22c compound doses were all prepared the same, using 3% ethanol, 1% POE-80, and 0.5% sodium bicarbonate. The injection volume was 0.2 mu/mouse IV. […] The mice were Balb/c female mice: DOB Feb. 12, 2001; DOA Mar. 27, 2001; DOT Sep. 8, 2001, with an average body weight of 24.7 grams at the start of Rx administration. The tumor was Colon Carcinoma-26 passage 141; date of implant Sep. 8, 2001, and implanted at 30 to 60 mg fragments bilaterally SC. All tumors were 63 to 171 mg on day 6, the day of first Rx.

[3] = test system: mammary adenocarcinoma-17/Adr; experiment: Test D: racemic compound 22c against early stage mammary adenocarcinoma-17/Adr; format: in vivo; conditions: for % Body Wt Loss at Nadir / % T/C mass / Activity Rating / Day of Nadir / Drug Deaths / Growth Delay / Log Kill / Median Tumor Mass on Day 10 (Range) / Tumor Free day-42: days 1,2,3,6,7,8
Method: Female C3H/HeN (MTV-neg) mice were obtained from N.C.I. Frederick (D.O.B. was Oct. 9, 2000; D.O.A. was Nov. 14, 2000). […] Then, P.B.S. was added, and the pH was adjusted to 7 with HCl. 0.2 ml per injection was administered IV.

[4] = test system: mammary adenocarcinoma-17/Adr; experiment: Test E: R-enantiomer of compound 22b and compound 22a against early stage mammary adenocarcinoma-17/Adr; format: in vivo
Method: Then, P.B.S. was added and the pH adjusted to 7 with HCl. A volume of 0.2 ml per injection was administered to animals intravenously. […] Then, P.B.S. was added and the pH was adjusted to 7 with HCl. A volume of 0.2 ml per injection was administered to animals intravenously.

[5] = Cage 2, IV 65 mg/kg/inj qd 1-4, total 260 mg/kg
[6] = Cage 3, IV 65 mg/kg/inj days 1,3,5,7, total 260 mg/kg
[7] = Cage 3, IV 65 mg/kg/inj days 1,3,5,7, total 260 mg/kg, listed as R-enantiomer of compound 22c
[8] = Cage 4, IV 40 mg/kg/inj days 1,3,5,7, total 160 mg/kg
[9] = Cage 4, IV 40 mg/kg/inj days 1,3,5,7, total 160 mg/kg, listed as R-enantiomer of compound 22c
[10] = Cg 13 in table (Cage 12 in text), IV 80 mg/kg/inj days 6,9,12,15,18,21, total 480 mg/kg
[11] = Cg 5, IV 50 mg/kg/inj days 6,8,10,13,15, total 250 mg/kg
[12] = Cage 3, IV 50, 62.5, then 60 mg/kg/inj, total 352.5 mg/kg
[13] = Cage 4, IV 30, 37.5, then 36 mg/kg/inj, total 211.5 mg/kg
[14] = Cage 3, IV 36 mg/kg day 1, 48 mg/kg/inj qd 2-7, total 324 mg/kg
[15] = Cage 4, IV 7 inj, total 162 mg/kg
[16] = Cage 5, IV 7 inj, total 81 mg/kg
[17] = Cg 8, IV 110 mg/kg/inj days 6,10, total 220 mg/kg
[18] = Cg 6, IV 80 mg/kg/inj days 6,8,10,14,16, total 400 mg/kg
[19] = Cg 7, IV 50 mg/kg/inj days 6,8,10,13,15, total 250 mg/kg

## C[C@@H](Oc1ccc(Oc2ccc3ccc(Br)cc3n2)cc1)C(=O)O [Compound R-22c]
[1]; [5]
  % Body Wt Loss at Nadir: −22.9%
  % T/C mass: toxic
  Activity Rating: toxic
  Cause of death: G.I. epithelial damage
  Day of Nadir: 6 days
  Drug Deaths: 5/5
  Growth Delay in Days: toxic
  Log Kill: toxic
  Median Tumor Mass on Day 10 (Range): toxic
  Median time for tumors to 1000 mg (range): toxic
  Neuromuscular toxicity: No neuromuscular toxicity
  Tumor Free day-155: 0/5
[1]; Cage 2, IV 65 mg/kg/inj qd 1-4, total 260 mg/kg, listed as R-enantiomer of compound 22c
  Drug Deaths: All the mice died
[1]; [6]
  % Body Wt Loss at Nadir: −8.3%
  % T/C mass: 4%
  Activity Rating: ++ (1.3-1.9)
  Day of Nadir: 9 days
  Day of full recovery of body weight: 12 days
  Drug Deaths: 0/5
  Growth Delay: 5.8 days
  Log Kill: 1.7
  Median Tumor Mass on Day 10 (Range): 63 mg
  Median time for tumors to 1000 mg (range): 15.3 (14-21.5) days
  Neuromuscular toxicity: no neuromuscular toxicity
  Tumor Free day-155: 0/5
[1]; [7]
  % Body Wt Loss at Nadir: −8.3%
  % T/C mass: 4%
  Drug Deaths: no deaths
[1]; [8]
  % Body Wt Loss at Nadir: +6.4%
  % T/C mass: 9%
  Activity Rating: ++ (1.3-1.9)
  Day of Nadir: 8 days
  Drug Deaths: 0/5
  Growth Delay: 4.7 days
  Log Kill: 1.4
  Median Tumor Mass on Day 10 (Range): 138 mg
  Median time for tumors to 1000 mg (range): 14.2 (12.5-16.7) days
  Tumor Free day-155: 1/5
[1]; [9]
  % Body Wt Loss at Nadir: +6.4%
  % T/C mass: 9%
[1]; whole trial (Test F), IV
  Neuromuscular toxicity: completely devoid of neuromuscular toxicity
[2]; Cage 12 in text, IV 80 mg/kg/inj, lasted only a few minutes
  Behavior post injection: agitated post IV injection
[2]; Cage 12 in text, IV 80 mg/kg/inj, total 480 mg/kg
  Neuromuscular toxicity: no neuromuscular toxicity
[2]; [10]
  % Body Wt change between day 6 and day 24: +5.9%
  % T/C mass: 2.8%
  Activity Rating: ++++ (>2.8)
  CR's: 3/4
  Drug Deaths: 0/4
  Growth Delay: 23.5 days
  Log Kill: 3.1
  Median Tumor Mass on Day 24 (Range): 63 mg
  Median time for tumors to 1,000 mg (range): 40 days
  PR's: 3/4
  Tumor Free day-157: 0/4
Colon carcinoma 26; [11]
  Drug Deaths: 0/6
Colon carcinoma 26; mouse, in vivo
  % Body Wt change at nadir: −8.1% (17)
  Activity Rating: ++++ (key: ++++: >2.8; +++: 2.0-2.8; ++: 1.3-1.9; +: 0.7-1.2; −: <0.7)
  CR's: 3/6
  Growth Delay in Days: 3/6
  Log Kill: >3.5
  Median time for tumors to 700 mg (range): 3/6 tumor free
  PR's: 3/6
  Tumor Free day-156: 3/6
  day of nadir: −8.1% (17) day

## CC(Oc1ccc(Oc2ccc3ccc(Br)cc3n2)cc1)C(=O)O (racemic) [Racemic 22c, 2-[4-(7-bromoquinolin-2-yloxy)phenoxy]propanoic acid]
[3]; Cage 3, 60 to 62.5 mg/kg dose IV
  Duration of slowing of nerve conduction: approximately 10 minutes
[3]; Cage 3, 60 to 62.5 mg/kg dose IV, mild gait disturbance
  Neuromuscular toxicity: modest slowing of nerve conduction
[3]; [12]
  % Body Wt Loss at Nadir: −5.5%
  % T/C mass: 0%
  Activity Rating: ++++ (>2.8)
  Day of Nadir: 11 days
  Drug Deaths: 0/5
  Growth Delay: 14 days
  Log Kill: 4.2
  Median Tumor Mass on Day 10 (Range): 0 (0-63) mg
  Tumor Free day-42: 0/5
[3]; Cage 3, total 352.5 mg/kg IV
  Day tumors reached 1000 mg (range): 21 (range 19-42) day
[3]; [13]
  % Body Wt Loss at Nadir: −4.1%
  % T/C mass: 5.6%
  Activity Rating: ++++ (>2.8)
  Day of Nadir: 13 days
  Drug Deaths: 0/5
  Growth Delay: 10 days
  Log Kill: 3.0
  Median Tumor Mass on Day 10 (Range): 172 (0-344) mg
  Tumor Free day-42: 0/5
[3]; Cage 4, IV 30-37.5 mg/kg/inj, total 211.5 mg/kg
  Neuromuscular toxicity: no gait disturbance
[3]; Cage 4, total 211.5 mg/kg IV
  Day tumors reached 1000 mg (range): 17 (range 14-21) day
Colon carcinoma 26; Cage 4, 400 mg/kg, omitted from Table 8
  Toxicity of dose group: toxic
Colon carcinoma 26; [11]
  Activity Rating: ++++ (>2.8)
  CR's: 3/6
  tumor free survivors on day 55: 3/6

## CC(Oc1ccc(Oc2ccc3ccc(F)cc3n2)cc1)C(=O)O (racemic) [Compound 22a, 2-[4-(7-fluoroquinolin-2-yloxy)phenoxy]propanoic acid]
[4]; [14]
  % Body Wt Loss at Nadir: −1.6%
  % T/C mass: 14%
  Activity Rating: ++ (1.3-1.9)
  Day of Nadir: 5 days
  Drug Deaths: 0/5
  Growth Delay: 5 days
  Log Kill: 1.5
  Median Tumor Mass on day 9 (Range): 138 (63-207) mg
  Tumor Free day-23: 0/5
[4]; Cage 3, IV 48 mg/kg/inj, limits higher individual dosages
  Neuromuscular toxicity: severe neuromuscular toxicity
[4]; Cage 3, IV 48 mg/kg/inj, longer for the rear legs
  Duration of leg dysfunction (front legs): 15 min
[4]; [15]
  % Body Wt Loss at Nadir: −1.5%
  % T/C mass: >100%
  Activity Rating: inactive
  Day of Nadir: 5 days
  Drug Deaths: 0/5
  Growth Delay: 1 days
  Log Kill: 0.3
  Median Tumor Mass on day 9 (Range): 975 (252-1836) mg
  Tumor Free day-23: 0/5
[4]; [16]
  % Body Wt Loss at Nadir: −3.0%
  % T/C mass: 77%
  Activity Rating: inactive
  Day of Nadir: 5 days
  Drug Deaths: 0/5
  Growth Delay: 1 days
  Log Kill: 0.3
  Median Tumor Mass on day 9 (Range): 743 (725-1413) mg
  Tumor Free day-23: 0/5

## O=P1(N(CCCl)CCCl)NCCCO1 (stereo not drawn) [Cytoxan]
Colon carcinoma 26; [17]
  % Body Wt change at nadir: −9.4%
  Activity Rating: no meaningful activity
  CR's: 0/5
  Drug Deaths: 0/5
  Growth Delay: 1 days
  Log Kill: 0.2
  Median time for tumors to 700 mg (range): 14 (12-15) days
  PR's: 0/5
  Tumor Free day-156: 0/5
  day of nadir: 12 days

## CC(Oc1ccc(Oc2cnc3ccc(Cl)cc3n2)cc1)C(=O)[O-].[Na+] (stereo not drawn) [XK469-R]
Colon carcinoma 26; [18]
  % Body Wt change at nadir: −8.1%
  Activity Rating: + (0.7-1.2)
  CR's: 0/6
  Drug Deaths: 0/6
  Growth Delay: 5 days
  Log Kill: 0.9
  Median time for tumors to 700 mg (range): 18 (15-20) days
  PR's: 0/6
  Tumor Free day-156: 0/6
  day of nadir: 13 days
Colon carcinoma 26; [19]
  % Body Wt change at nadir: −4.0%
  Activity Rating: inactive
  CR's: 0/6
  Drug Deaths: 0/6
  Growth Delay in Days: none
  Log Kill: none
  Median time for tumors to 700 mg (range): 13 (11.5-20) days
  PR's: 0/6
  Tumor Free day-156: 0/6
  day of nadir: 13 days
